According to patent publication US12612395B2, “Rocaglate derivatives and uses thereof” (TRUSTEES OF BOSTON UNIVERSITY, priority 2023, dated 2026):

How the values were obtained:
[1] = tested on: GBM0308 stem cells; assay: RNA sequencing of treated GBM CSCs; format: cell-based, human; conditions: 0.1 μM and 1 μM, 12 h and 24 h
Text: To understand the transcriptomic changes underlying (−)-20 effects on GBM CSCs, the inventors performed RNA sequencing experiments in these cells. […] Furthermore, upon compound treatment, the inventors observed the downregulation of several hallmark gene sets associated with critical cellular processes, including apoptosis, glycolysis, MTORC1 signaling, NOTCH signaling, epithelial-mesenchymal transition (EMT), and angiogenesis (FIGS. 5D and 18A). […] This observation emphasizes the complexity of cell death mechanisms and the potential origins of selectivity of (−)-20 against CSCs. […] (FIG. 5E).
RNA Sequencing and Analysis: GBM0308 cells cultured in NBE medium were treated with compound (−)-20 at concentrations of 0.1 μM, 1 μM and DMSO. At 12 h and 24 h timepoints, total RNA was extracted using RNeasy mini kit (Qiagen) as per the manufacturer's instruction. Preparation of the RNA library and transcriptome sequencing were conducted by Novogene. […]

[2] = tested on: BT112 CSCs; assay: Dose-response killing of CSCs in BT112 glioblastoma cell line; format: cell-based; conditions: Homo sapiens, read-out: CSC EC50
Method: (§1) Cell Culture: Glioblastoma stem cell lines GBM0308, BT145, and BT112 were cultured in neurobasal (NBE medium) containing N-2 and B-27 supplements, EGF, bFGF, L-glutamine, and Penicillin-Streptomycin), as described previously.^19 Adherent GBM cells were cultured in serum-containing DMEM media (Invitrogen) supplemented with 10% fetal bovine serum (Corning Cellgro™). Cells were incubated at 37° C. and 5% CO2 to allow neurosphere formation. For seeding and subculturing, the neurospheres were gently trypsinized with 0.025% trypsin to form a single-cell suspension.
(§2) Dose-Response Testing in GBM Cells: Briefly, on day 1, cells were seeded in triplicate. For CSCs, 1500 cells/well were plated in a low attachment 96-well plate with NBE media and incubated for 3 days at 37° C. and 5% CO2 to allow the formation of neurospheres. For non-CSCs, 3000 cells/well were plated in a 96-well plate with DMEM media supplemented with 10% FBS. Similarly, the assay plates were also incubated for the same duration. Compound treatments started on day 4. […] After incubation, plates were read by Celigo imaging cytometer using an inbuilt Celigo application; Cell Viability (Dead+Total). For the viability measurement, the total number of neurospheres/cells and dead neurospheres/cells in each well were counted by the cytometer. […]

[3] = tested on: GBM0308 neurospheres; assay: Caspase 3/7 staining of neurospheres; format: cell-based, human; conditions: 1 μM, 24- and 48-hour timepoints
Method: (§3) To gain additional mechanistic insights into GBM cell death induced by (−)-20, the inventors conducted several functional assays. The inventors first derived a single neurosphere from GBM0308 cells cultured in stem cell conditions, which was treated with either DMSO or (−)-20 at varying doses for three days followed by staining with PI and Hoechst dyes and subsequent imaging. […] To capture the kinetics of apoptotic events, the inventors employed caspase 3/7 staining of GBM0308 neurospheres treated with either DMSO or (−)-20 and subsequently evaluated at three timepoints over a 48-hour period. […] (FIG. 5B).
Apoptosis Assays: For the Caspase 3/7 assay single neurospheres were generated as described above. On day four, neurospheres were treated with compound (−)-20. Apoptosis in treated tumorspheres was assessed using Nexcelom's ViaStain™ Live Caspase 3/7 Detection kit (Nexcelcom, CS1-V0002-1). […] Plates were imaged using the “neurosphere 1+Mask” application to measure fluorescent intensities of the caspase dye, as described previously.^70 Apoptosis was quantified using the FITC Annexin V apoptosis detection kit II (Invitrogen). […] At 12 h and 24 h after treatment, neurospheres were gently dissociated by using trypsin 0.025%, stained with PI and FITC and analyzed by flow cytometery using a Bio-Rad ZE5 Cell Analyzer.

[4] = tested on: BT145 CSCs; assay: Dose-response killing of CSCs in BT145 glioblastoma cell line; format: cell-based; conditions: Homo sapiens, read-out: CSC EC50
Method: as §1, §2

[5] = tested on: GBM0308 neurospheres; assay: Neurosphere formation assay (single neurosphere, PI/Hoechst); format: cell-based; conditions: three days treatment
Method: as §3
Neurosphere Formation Assays: Single neurospheres were generated by seeding GBM0308 cells (400 cells per well) in a 384-well ultra-low attachment round bottom microplate (Nexcelom Bioscience, ULA-384 U). The plates were then centrifuged at 300×g for 10 minutes to cluster cells at the bottom of the wells, followed by incubation at 37° C. and 5% CO2 for 4 days to allow the formation of single neurospheres and treated with either DMSO or drugs at concentrations of 3.3, 1.11, 0.37, 0.12, 0.041, 0.013, 0.004 μM. On Day 7, neurospheres were stained with propidium iodide and Hoechst, as described above. The “neurosphere 1+Mask” application was used to measure the fluorescent intensities of PI, using Celigo cytometer as described previously.^70

COc1cc(OC)c2c(c1)O[C@@]1(c3ccc(Br)cc3)[C@H](c3ccccc3)[C@@H](C(=O)NS(=O)(=O)N(C)C)[C@@H](O)[C@@]21O [(−)-20, (1R,2R,3S,3aR,8bS)-3a-(4-bromophenyl)-N—(N,N-dimethylsulfamoyl)-1,8b-dihydroxy-6,8-dimethoxy-3-phenyl-2,3,3a,8b-tetrahydro-1H-cyclopenta[b]benzofuran-2-carboxamide]
expression of genes involved in stem cell maintenance and survival (NOTCH1, NOTCH2, NOTCH3, SALL3, SOX2) [1]: downregulated | EC50 [2]: 34 nM | caspase 3/7 staining [3]: positive staining | EC50 [4]: 93 nM | concentration from which cytotoxic effects on CSC neurospheres are seen (PI staining) [5]: ≥ 120 nM | effect on neurosphere size, in words ([5]; varying doses): dose-dependent reduction in neurosphere size
